Test results published in ChEMBL document CHEMBL1129421, “Comparative molecular field analysis of haptens docked to the multispecific antibody IgE(Lb4)” (J Med Chem, 1996).

These compounds were tested on Monoclonal antibody (mAb) (assay: Ability to bind to monoclonal antibody IgE (Lb4), expressed as association constant (LogKA)).
`O=[N+]([O-])c1ccc(O)c([N+](=O)[O-])c1` gave a Log KA of 4.89. `O=C(O)CC(Nc1ccc([N+](=O)[O-])cc1[N+](=O)[O-])C(=O)O` (centres undefined) gave a Log KA of 5.5. `N#C/C(=C\c1ccccc1)C(=O)O` gave a Log KA of 5.04. In the case of `O=C(O)CNc1ccc([N+](=O)[O-])cc1[N+](=O)[O-]`, the Log KA is reported as 4.9. For `N[C@@H](CCCCNc1ccc([N+](=O)[O-])cc1[N+](=O)[O-])C(=O)O`, the Log KA was 4.38. `O=C(CCC(=O)Oc1ccccc1C(=O)O)Oc1ccccc1C(=O)O` was tested, and the Log KA was 4.57. Work on `NC(=O)CC(Nc1ccc([N+](=O)[O-])cc1[N+](=O)[O-])C(=O)O` (centres undefined) yielded a Log KA of 4.92. `O=C(O)C(CO)Nc1ccc([N+](=O)[O-])cc1[N+](=O)[O-]` (centres undefined) was tested, and the Log KA was 5.5. With `O=C(O)c1ccc2ccccc2c1O` the Log KA was 6.71. With `CC(O)C(Nc1ccc([N+](=O)[O-])cc1[N+](=O)[O-])C(=O)O` (centres undefined) the Log KA was 5.49. `O=C(O)c1cccc(C(=O)O)c1C(=O)O` gave a Log KA of 4.77. With `Nc1ccc2ccccc2c1` the Log KA was 5.71. `CSCCC(Nc1ccc([N+](=O)[O-])cc1[N+](=O)[O-])C(=O)O` (centres undefined) was tested, and the Log KA was 5.72. For `Nc1ccc(/N=N/c2ccccc2)c(N)n1`, the Log KA was 6.5. `O=C(O)CCC(Nc1ccc([N+](=O)[O-])cc1[N+](=O)[O-])C(=O)O` (centres undefined) gave a Log KA of 4.63. In the case of `CC(C)CC(Nc1ccc([N+](=O)[O-])cc1[N+](=O)[O-])C(=O)O` (centres undefined), the Log KA is reported as 5.39. Compound `C[N+](C)(C)CC(O)C[N+](C)(C)C` has a Log KA of 4.66. For `O=C(O)C(Cc1ccccc1)Nc1ccc([N+](=O)[O-])cc1[N+](=O)[O-]` (centres undefined), the Log KA was 5.78. In the case of `CC(Nc1ccc([N+](=O)[O-])cc1[N+](=O)[O-])C(=O)O` (centres undefined), the Log KA is reported as 5.8. With `O=C(O)C(Cc1ccc(O)cc1)Nc1ccc([N+](=O)[O-])cc1[N+](=O)[O-]` (centres undefined) the Log KA was 4.85. Work on `Cc1ccc(O)c(C(=O)O)c1` yielded a Log KA of 5.38. With `O[C@@](CCN1CCCCC1)(c1ccccc1)C1CCCC1` the Log KA was 4.84. With `CC(C)C(Nc1ccc([N+](=O)[O-])cc1[N+](=O)[O-])C(=O)O` (centres undefined) the Log KA was 5.93. Work on `O[C@](CCN1CCCCC1)(c1ccccc1)C1CCCC1` yielded a Log KA of 4.84. `CC(=O)Nc1nnc(S(N)(=O)=O)s1` was tested, and the Log KA was 5. For `O=C(O)C1CCCN1c1ccc([N+](=O)[O-])cc1[N+](=O)[O-]` (centres undefined), the Log KA was 5.19. With `N=C(N)NCCC[C@H](Nc1ccc([N+](=O)[O-])cc1[N+](=O)[O-])C(=O)O` the Log KA was 5.04. For `NC(=O)CCC(Nc1ccc([N+](=O)[O-])cc1[N+](=O)[O-])C(=O)O` (centres undefined), the Log KA was 5.08. Compound `O=C(O)C(Cc1c[nH]c2ccccc12)Nc1ccc([N+](=O)[O-])cc1[N+](=O)[O-]` (centres undefined) has a Log KA of 5.93.
